Measurements published in patent US7309691B2, “Combined pharmaceutical preparation containing LHRH-analogous substances and anti estrogens for treating gynaecological disorders” (Achering Aktiengesellschaft, priority 1996, dated 2007).

Key:
[1] = women; literature; cited from earlier work
[2] = test system: experimentally produced endometriosis (cystic endometriosis foci); assay: Experimentally produced endometriosis in the rat (transplanted endometrium fragments)
Procedure: Fragments of endometrium were transplanted into different regions of the abdominal cavity of 60 animals.
Four weeks later the development of the endometriosis (cystic endometriosis foci) was examined.
The animals were then treated for 4 weeks with the LHRH antagonists Antide (0.5 mg/animal every 3 days s.c.) and Raloxifen (3 mg/animal per day p.o.) in each case alone, or in a combination of the two compounds. At the end the size of the endometriosis foci before the beginning of the treatment was compared with the values after 4 weeks' treatment.
60 animals received the LHRH antagonist Antide and Raloxifen in parallel for the first 2 weeks and Raloxifen alone for the following 2 weeks. The doses were selected as in 1.1.
60 animals received the LHRH antagonist Antide for 2 weeks. On completion of the LHRH administration Raloxifen was then administered for 2 weeks.
Analogously to Example 1, treatment with LHRH antagonists Ac-D-Nal-D-Cpa-D-Pal-Ser-Tyr-D-Cit-Leu-Lys(Mor)-D-Ala-NH2 and Droloxifen was carried out on 40 animals.

Row | Compound | side effects of treatment [1] | endogenous oestrogen levels ([2]; 1.1: 4 weeks' treatment, alone) | regression of the endometriosis foci (size before vs after treatment) ([2]; 1.1: 4 weeks' treatment, Antide 0.5 mg/animal every 3 days s.c., Raloxifen 3 mg/animal per day p.o., each alone or simultaneous combination) | osteoclast activity ([2]; rat, in vivo)
1 | C#C[C@]1(O)CC[C@H]2[C@@H]3CCC4=Cc5oncc5C[C@]4(C)[C@H]3CC[C@@]21C [danazol] | androgenisation phenomena |  |  | 
2 | Antide |  | reduction in endogenous oestrogen levels corresponding to an ovariectomy | complete regression | increase
